Measured values: ChEMBL document CHEMBL1201862, “PubChem BioAssay data set” (2004)
The source made the active and inactive calls.

Legend:
[1] = target: Potassium channel subfamily K member 9 (Homo sapiens, UniProt Q9NPC2); assay: TASK3 (KCNK9) channel inhibitors, thallium flux, SAR follow-up, selectivity assay for TASK1 inhibitor project, cell-based, FluxOR thallium flux, concentration-response (AID 652211); type: functional;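 further: potency is for inhibitors of the channel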
[2] = Counterscreen for inhibitors of Trypanosoma brucei methionyl tRNA synthetase (MetRS): Luminescence-based cell-based high throughput dose response assay to identify compounds that are cytotoxic to Jurkat human T lymphocyte cells.; type: functional
[3] = target: T1, Methionyl-tRNA synthetase, putative (Trypanosoma brucei brucei, UniProt Q38C91); type: functional, Trypanosoma brucei brucei strain 927/4 GUTat10.1
T1 sequence (Q38C91 whole entry): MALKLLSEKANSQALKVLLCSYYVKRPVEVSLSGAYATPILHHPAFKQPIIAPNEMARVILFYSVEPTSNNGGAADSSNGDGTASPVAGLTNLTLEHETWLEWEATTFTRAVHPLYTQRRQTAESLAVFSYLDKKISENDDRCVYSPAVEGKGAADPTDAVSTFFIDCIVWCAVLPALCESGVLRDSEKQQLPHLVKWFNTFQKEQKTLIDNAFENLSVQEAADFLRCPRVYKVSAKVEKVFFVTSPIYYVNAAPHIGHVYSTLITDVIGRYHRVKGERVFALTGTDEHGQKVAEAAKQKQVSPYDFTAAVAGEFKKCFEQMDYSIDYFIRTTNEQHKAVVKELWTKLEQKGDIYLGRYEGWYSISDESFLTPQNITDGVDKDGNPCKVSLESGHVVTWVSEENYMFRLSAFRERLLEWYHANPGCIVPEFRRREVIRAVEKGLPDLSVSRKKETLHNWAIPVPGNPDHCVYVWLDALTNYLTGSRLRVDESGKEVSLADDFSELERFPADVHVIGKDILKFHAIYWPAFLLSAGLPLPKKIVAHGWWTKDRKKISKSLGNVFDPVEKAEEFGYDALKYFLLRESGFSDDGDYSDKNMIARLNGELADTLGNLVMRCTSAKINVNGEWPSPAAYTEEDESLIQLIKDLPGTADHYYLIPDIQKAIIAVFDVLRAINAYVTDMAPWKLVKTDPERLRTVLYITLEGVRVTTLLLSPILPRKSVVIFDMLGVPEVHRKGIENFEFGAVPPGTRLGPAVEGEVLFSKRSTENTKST

[4] = target: T1, Methionyl-tRNA synthetase, putative; type: functional, Trypanosoma brucei brucei strain 927/4 GUTat10.1; remark: listed apart in the source
A549 = assay: A549 cell toxicity, dose response, cytotoxicity control, plate reader, cherry-pick samples (AID 687028); type: functional, cell-based; conditions: Homo sapiens
Vero = assay: Vero cell toxicity, dose response, cytotoxicity control, plate reader, cherry-pick samples (AID 687020); type: functional, cell-based; conditions: Chlorocebus sabaeus
cells [5] = type: functional, cell-based
[6] = target: T2, Trace amine-associated receptor 1 (Homo sapiens, UniProt Q96RJ0); assay: Fluorescence-based cell-based high throughput dose response assay to identify agonists of the human trace amine associated receptor 1 (TAAR1).; type: functional
T2 sequence (Q96RJ0 whole entry): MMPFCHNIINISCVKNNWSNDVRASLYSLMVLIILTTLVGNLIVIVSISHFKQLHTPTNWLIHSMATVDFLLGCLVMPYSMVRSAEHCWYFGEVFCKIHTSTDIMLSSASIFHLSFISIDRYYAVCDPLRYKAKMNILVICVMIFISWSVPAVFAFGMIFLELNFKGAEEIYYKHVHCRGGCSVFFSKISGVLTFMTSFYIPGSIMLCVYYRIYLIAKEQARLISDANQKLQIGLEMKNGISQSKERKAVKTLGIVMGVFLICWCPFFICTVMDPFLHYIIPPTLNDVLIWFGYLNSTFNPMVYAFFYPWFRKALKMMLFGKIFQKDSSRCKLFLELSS

cells [7] = type: functional, cell-based; remark: listed apart in the source
[8] = target: T2, Trace amine-associated receptor 1; assay: Counterscreen for agonists of the human trace amine associated receptor 1 (hTAAR1): Fluorescence-based cell-based high throughput dose response assay to identify hTAAR1 agonist that also desensitize TAAR1 receptor response.; type: functional
[9] = reduction of Shn3 3'UTR firefly luciferase signal, dose response, Schnurri-3 inhibitor project, cell-based, Clone20 osteoblasts, cherry-pick, set 2 (AID 720490); type: functional;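 further: actives lower the luminescence signal as inhibitors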
cells [10] = type: functional, cell-based; conditions: HEK-CNG
[11] = growth suppression of beta-catenin-knockout colon cells, dose response, cell-based, HCT116, human colon tumor (AID 1045); type: functional;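 further: HCT116 colon tumor cells with beta catenin knocked out; cells exposed to compound for 60 hours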
[12] = control 3'UTR Renilla luciferase suppression, dose response, counter-screen for Shn3 inhibitor project, cell-based, Clone20-Shn3RL, cherry-picked (AID 624133); type: functional
Galanin receptor type 3 = target: T3, Galanin receptor type 3 (Homo sapiens, UniProt O60755); assay: Fluorescence-based cell-based primary high throughput dose response assay to identify antagonists of the Galanin Receptor 3 (GalR3).; type: functional
T3 sequence (O60755 whole entry): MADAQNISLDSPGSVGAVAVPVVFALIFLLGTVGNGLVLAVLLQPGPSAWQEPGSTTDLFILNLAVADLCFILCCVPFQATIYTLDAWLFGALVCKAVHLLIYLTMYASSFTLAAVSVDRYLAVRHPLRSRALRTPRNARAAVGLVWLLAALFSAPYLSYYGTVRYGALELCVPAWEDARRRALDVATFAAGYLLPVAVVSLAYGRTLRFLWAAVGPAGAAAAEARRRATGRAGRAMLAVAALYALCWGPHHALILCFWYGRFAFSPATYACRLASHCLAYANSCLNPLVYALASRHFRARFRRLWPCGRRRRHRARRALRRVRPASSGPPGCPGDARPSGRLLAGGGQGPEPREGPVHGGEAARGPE

[13] = HepG2 cell cytotoxicity, dose response, cytotoxicity control for Shn3 inhibitor project, CellTiter-Glo, cherry-picked (AID 624134); type: functional, cell-based
[14] = inhibitors of control Renilla luciferase reporter, dose response, counter-screen for Shn3 3'UTR targeting project, Clone20-Shn3RL cells, dual-Glo, cherry-pick, set 2 (AID 720724); type: functional, cell-based; conditions: Dual-Go Shn3RL
[15] = Shn3 3'UTR reporter inhibitors, dose response, cell-based, Clone20 osteoblasts, firefly luciferase, cherry-picked (AID 624132); type: functional;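 further: firefly luciferase luminescence from reporter carrying the Shn3 3'UTR in osteoblasts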
SUMO-activating enzyme [16] = target: T4, SUMO-activating enzyme (Homo sapiens, UniProt Q9UBT2); assay: SUMOylation inhibitor hit validation, confirmation, SUMOylation inhibitor project, biochemical, AlphaScreen (AID 2018); type: functional
T4 sequence (Q9UBE0 whole entry): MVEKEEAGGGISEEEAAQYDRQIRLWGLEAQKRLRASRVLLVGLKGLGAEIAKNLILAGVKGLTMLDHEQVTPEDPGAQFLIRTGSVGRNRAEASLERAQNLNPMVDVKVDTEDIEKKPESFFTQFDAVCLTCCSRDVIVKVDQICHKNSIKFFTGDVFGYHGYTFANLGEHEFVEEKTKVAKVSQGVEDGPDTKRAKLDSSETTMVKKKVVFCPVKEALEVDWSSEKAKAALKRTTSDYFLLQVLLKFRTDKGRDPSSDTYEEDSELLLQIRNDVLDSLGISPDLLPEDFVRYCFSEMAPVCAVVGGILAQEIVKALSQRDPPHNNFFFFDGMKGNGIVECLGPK
T4 sequence (Q9UBT2 whole entry): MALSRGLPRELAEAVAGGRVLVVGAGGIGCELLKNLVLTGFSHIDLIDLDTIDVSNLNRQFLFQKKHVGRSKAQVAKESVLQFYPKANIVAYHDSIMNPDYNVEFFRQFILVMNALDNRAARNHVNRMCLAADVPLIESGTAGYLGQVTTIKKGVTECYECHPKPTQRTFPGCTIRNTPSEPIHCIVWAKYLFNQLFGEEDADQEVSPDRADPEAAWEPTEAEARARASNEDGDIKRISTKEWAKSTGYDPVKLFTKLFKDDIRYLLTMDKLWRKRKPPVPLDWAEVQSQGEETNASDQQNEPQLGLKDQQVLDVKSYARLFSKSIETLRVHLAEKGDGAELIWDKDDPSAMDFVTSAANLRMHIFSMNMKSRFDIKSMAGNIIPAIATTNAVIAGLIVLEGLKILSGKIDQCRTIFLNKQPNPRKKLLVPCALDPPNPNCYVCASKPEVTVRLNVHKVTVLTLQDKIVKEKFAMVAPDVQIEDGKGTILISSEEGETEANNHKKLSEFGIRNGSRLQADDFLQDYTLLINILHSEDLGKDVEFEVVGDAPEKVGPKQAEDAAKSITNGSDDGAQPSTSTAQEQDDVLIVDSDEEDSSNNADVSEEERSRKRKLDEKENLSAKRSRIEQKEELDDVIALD

[17] = target: T5, Sentrin-specific protease 8 (Homo sapiens, UniProt Q96LD8); type: functional
T5 sequence (Q96LD8 whole entry): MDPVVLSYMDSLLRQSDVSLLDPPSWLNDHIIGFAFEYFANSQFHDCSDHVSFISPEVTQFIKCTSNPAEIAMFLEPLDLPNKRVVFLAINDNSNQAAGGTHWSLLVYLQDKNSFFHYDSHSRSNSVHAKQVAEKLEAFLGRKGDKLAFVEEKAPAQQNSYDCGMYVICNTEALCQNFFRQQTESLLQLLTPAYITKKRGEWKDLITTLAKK

[18] = target: T5, Sentrin-specific protease 8; type: functional; remark: listed apart in the source
SUMO-activating enzyme [19] = target: T4, SUMO-activating enzyme; assay: inhibitors of in vitro SUMOylation cascade, primary screen, biochemical, HTRF, uHTS (AID 2006); type: protein-complex assay
cells [20] = type: functional, cell-based; remark: listed apart in the source
[21] = target: Nuclear receptor subfamily 0 group B member 1 (Homo sapiens, UniProt P51843); type: functional, cell-based;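 further: HEK293T cells transfected with SF-1 and DAX-1 plus StAR promoter luciferase reporter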
Nuclear receptor subfamily 0 group B member 1, sequence (P51843 whole entry): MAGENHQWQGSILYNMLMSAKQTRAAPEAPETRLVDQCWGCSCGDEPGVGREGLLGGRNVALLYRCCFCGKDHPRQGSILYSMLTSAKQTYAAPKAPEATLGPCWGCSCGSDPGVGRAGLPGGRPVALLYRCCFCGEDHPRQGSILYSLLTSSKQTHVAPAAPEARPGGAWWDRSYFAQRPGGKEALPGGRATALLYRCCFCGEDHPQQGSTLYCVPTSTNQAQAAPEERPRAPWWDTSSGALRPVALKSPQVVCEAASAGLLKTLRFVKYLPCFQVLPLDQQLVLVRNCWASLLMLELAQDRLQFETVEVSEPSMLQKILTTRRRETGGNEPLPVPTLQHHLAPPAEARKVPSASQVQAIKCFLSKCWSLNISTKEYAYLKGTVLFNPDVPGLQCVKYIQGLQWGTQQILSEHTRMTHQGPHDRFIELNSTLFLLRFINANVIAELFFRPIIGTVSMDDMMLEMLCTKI

[22] = NIH/3T3 fibroblast cytotoxicity, dose response, cytotoxicity control for T. cruzi growth inhibitor project, cell-based, cherry-pick samples, set 2 (AID 651817); type: functional; conditions: NIH3T3
[23] = Late stage assay provider results from the probe development effort to identify inhibitors of the Plasmodium falciparum M17 Leucine Aminopeptidase (M17LAP): radiolabel-based cell-based dose response assay to identify compounds that inhibit P. falciparum growth in RBCs Set 2.; type: functional
Paired box protein Pax-8 = Paired box protein Pax-8 (Homo sapiens, UniProt Q06710); assay: inhibitors of PAX8-driven TPO luciferase reporter, dose response, RMG-I cells, cherry-pick (AID 687027); type: functional, cell-based;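 further: luciferase reporter driven by Pax8 target thyroperoxidase promoter measured by SteadyGlo luminescence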
Paired box protein Pax-8, sequence (Q06710 whole entry): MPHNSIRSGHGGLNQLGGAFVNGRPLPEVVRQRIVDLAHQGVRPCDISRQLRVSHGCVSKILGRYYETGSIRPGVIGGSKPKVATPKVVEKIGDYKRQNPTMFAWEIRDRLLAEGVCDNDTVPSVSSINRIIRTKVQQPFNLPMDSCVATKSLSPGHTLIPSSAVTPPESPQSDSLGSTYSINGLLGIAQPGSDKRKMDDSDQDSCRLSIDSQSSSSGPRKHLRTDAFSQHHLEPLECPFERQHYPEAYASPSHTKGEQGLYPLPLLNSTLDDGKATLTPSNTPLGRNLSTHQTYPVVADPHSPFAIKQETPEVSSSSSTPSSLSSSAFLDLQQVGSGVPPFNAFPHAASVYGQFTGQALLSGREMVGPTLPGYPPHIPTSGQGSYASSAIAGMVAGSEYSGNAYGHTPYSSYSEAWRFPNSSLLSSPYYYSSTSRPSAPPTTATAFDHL

[24] = inhibitors of CMV-promoter luciferase reporter, dose response, counter-screen for Pax8 inhibitor project, cell-based, HEK293, luminescence, dry powder (AID 743020); type: functional
HeLa = assay: HeLa cell cytotoxicity, dose response, cytotoxicity control, ATP luminescence, cherry-pick samples (AID 687004); type: functional, cell-based; conditions: Homo sapiens
[25] = target: T6, Probable nicotinate-nucleotide adenylyltransferase (Staphylococcus aureus (strain N315), UniProt P65502); type: functional, Staphylococcus aureus subsp. aureus N315; conditions: read-out: IC50_Mean;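 on IC50 Mean: confirmatory dose-response retesting of NadD inhibitor hits first found in an ultra-high-throughput screen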
T6 sequence (P65502 whole entry): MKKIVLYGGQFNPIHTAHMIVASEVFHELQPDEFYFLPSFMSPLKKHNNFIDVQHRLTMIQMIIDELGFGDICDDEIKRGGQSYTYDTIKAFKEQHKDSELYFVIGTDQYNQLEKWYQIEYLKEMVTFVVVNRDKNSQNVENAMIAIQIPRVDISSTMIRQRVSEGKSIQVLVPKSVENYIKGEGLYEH

[26] = target: T6, Probable nicotinate-nucleotide adenylyltransferase; type: functional, Staphylococcus aureus subsp. aureus N315
[27] = microbe, parasite or virus in culture; type: functional; conditions: Mycobacterium tuberculosis
Cytochrome P450 1A2 = target: T7, Cytochrome P450 1A2 (Homo sapiens, UniProt P05177);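 further: PubChem cytochrome P450 panel assay, CYP1A2 panel member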
T7 sequence (P05177 whole entry): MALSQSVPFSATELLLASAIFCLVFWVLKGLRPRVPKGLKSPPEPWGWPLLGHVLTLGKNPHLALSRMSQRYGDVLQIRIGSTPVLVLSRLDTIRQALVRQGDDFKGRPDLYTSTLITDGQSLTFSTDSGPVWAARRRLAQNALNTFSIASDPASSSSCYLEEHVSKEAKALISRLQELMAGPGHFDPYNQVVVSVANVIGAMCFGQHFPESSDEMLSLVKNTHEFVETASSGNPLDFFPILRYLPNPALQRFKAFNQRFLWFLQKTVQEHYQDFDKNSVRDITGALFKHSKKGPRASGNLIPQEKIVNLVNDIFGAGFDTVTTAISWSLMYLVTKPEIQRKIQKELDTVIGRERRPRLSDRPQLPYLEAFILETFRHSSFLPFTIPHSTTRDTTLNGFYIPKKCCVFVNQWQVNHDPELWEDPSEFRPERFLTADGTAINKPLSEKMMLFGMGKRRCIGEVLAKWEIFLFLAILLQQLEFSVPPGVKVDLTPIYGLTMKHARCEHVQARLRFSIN

[28] = cytotoxicity in HEK-293T cells, dose response, cytotoxicity control for TCR NF-kB inhibitor project, luminescence, T-cell screen hits (AID 489026); type: functional, cell-based;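 further: cells exposed to compound about 14 hours before the viability readout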
cells [29] = assay: cells
[30] = Counterscreen for activators of the function of SWI/SNF related, matrix associated, actin dependent regulator of chromatin, subfamily a, member 2 (SMARCA2, BRM): Luminescence-based cell-based high throughput dose response assay to identify non-selective compounds using the VP16 reporter assay.; type: functional
[31] = cytotoxicity toward NIH3T3 fibroblasts, dose response, counter-screen, cell-based, ATP luminescence, mouse fibroblasts (AID 2010); type: functional;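 further: cells exposed to compound for about 90 hours before reading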
[32] = inhibitors of intracellular T. cruzi replication, confirmation, NIH3T3 host cells, beta-gal luminescence (AID 2044); type: functional, cell-based;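 further: intracellular parasites grown in NIH/3T3 mouse fibroblasts as host cells; luminescent beta-galactosidase reporter signal from transgenic T. cruzi replicating inside host cells; inhibitors lower the luminescence signal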
[33] = target: SWI/SNF-related matrix-associated actin-dependent regulator of chromatin subfamily A member 2 (Homo sapiens, UniProt P51531); assay: Luminescence-based cell-based high throughput dose response assay to identify activators of the function of SWI/SNF related, matrix associated, actin dependent regulator of chromatin, subfamily a, member 2 (SMARCA2, BRM).; type: functional
[34] = target: T8, Microphthalmia-associated transcription factor (Homo sapiens, UniProt O75030); assay: TRPM1 promoter luciferase signal decrease, dose response, MITF inhibitor project, cell-based, SK-MEL-5, cherry-picked, set 3 (AID 493073); type: functional
T8 sequence (O75030 whole entry): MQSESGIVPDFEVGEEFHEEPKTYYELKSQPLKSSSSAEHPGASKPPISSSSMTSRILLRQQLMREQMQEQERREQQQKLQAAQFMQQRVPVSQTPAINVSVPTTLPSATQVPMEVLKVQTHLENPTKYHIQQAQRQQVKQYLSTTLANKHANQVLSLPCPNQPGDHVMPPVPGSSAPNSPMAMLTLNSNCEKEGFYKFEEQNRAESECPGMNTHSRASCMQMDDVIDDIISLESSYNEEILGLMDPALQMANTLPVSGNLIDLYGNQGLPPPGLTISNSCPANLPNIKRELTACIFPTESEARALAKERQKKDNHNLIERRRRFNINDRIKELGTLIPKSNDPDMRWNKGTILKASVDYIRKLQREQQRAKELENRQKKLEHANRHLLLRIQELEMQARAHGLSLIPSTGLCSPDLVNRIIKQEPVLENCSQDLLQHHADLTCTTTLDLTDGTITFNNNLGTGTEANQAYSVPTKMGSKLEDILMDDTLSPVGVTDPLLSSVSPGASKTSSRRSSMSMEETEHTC

[35] = target: Botulinum neurotoxin type F (Clostridium botulinum, UniProt P30996); assay: High-throughput multiplex microsphere dose response for inhibitors of toxin protease, specifically Botulinum neurotoxin light chain F protease, compounds from Cherry Pick 02.; type: functional; conditions: read-out: EC50_MICROM
Botulinum neurotoxin type F, sequence (P30996 1-436 limits assumed): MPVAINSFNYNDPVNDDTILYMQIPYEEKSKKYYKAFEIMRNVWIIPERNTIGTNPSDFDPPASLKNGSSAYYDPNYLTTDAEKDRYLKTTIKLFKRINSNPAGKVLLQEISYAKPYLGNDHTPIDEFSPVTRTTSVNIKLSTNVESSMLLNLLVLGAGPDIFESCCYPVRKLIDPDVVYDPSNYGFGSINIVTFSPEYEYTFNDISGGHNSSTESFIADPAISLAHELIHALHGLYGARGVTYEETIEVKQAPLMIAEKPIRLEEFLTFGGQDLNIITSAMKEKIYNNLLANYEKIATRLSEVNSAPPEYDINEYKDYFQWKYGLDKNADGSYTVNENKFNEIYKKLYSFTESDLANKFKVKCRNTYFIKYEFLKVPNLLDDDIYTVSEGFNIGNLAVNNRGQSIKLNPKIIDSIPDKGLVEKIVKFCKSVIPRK

Potassium channel subfamily K member 9, sequence (Q9NPC2 whole entry): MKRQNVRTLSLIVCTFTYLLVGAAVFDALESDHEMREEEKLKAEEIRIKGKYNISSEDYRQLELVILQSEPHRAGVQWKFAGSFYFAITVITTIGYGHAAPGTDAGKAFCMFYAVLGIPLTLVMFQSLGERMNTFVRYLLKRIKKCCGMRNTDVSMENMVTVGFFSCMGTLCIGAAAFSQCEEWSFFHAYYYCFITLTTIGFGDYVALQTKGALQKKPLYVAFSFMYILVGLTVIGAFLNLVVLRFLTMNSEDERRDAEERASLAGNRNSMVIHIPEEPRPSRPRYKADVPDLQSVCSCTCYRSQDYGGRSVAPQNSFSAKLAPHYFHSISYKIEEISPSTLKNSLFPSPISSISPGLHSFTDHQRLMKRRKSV

SMILES: Cc1cccc(C(=O)Nc2cccc(NC(=O)c3cccc(Cl)c3)c2)c1
- IC50 [1]: 13.4 µM (active)

SMILES: COc1ccccc1NC(=O)c1ccc(-n2ccnc2)c([N+](=O)[O-])c1
- IC50 [2]: 83.3 µM (inactive)
- IC50 [3]: 55.4 µM (inactive)
- IC50 [4]: 29 µM (inactive)

SMILES: O=C(CN1CCN(C(=O)C2CCC2)CC1)Nc1ccc(F)cc1
- AC50 (A549): 21.4 µM (active)
- AC50 (Vero): 28.2 µM (active)

SMILES: Cc1ccc(NC(=O)CCN2CCc3ccccc3C2)cc1
- EC50 (cells [5]): > 29.9 µM (inactive)
- EC50 [6]: 1.12 µM (active)
- IC50 (cells [7]): > 29.9 µM (inactive)
- IC50 [8]: 7.46 µM (active)

SMILES: CCCOC(=O)c1ccc(OCC(O)Cn2c(C)nc3ccccc32)cc1 (stereo unspecified)
- AC50 [9]: 3.38 µM (active)
- EC50 (cells [10]): > 29.9 µM (inactive)
- EC50 [11]: 14.6 µM (active)
- AC50 [12]: 8.49 µM (active)
- IC50 (Galanin receptor type 3): 1.57 µM (active)
- AC50 [13]: 35.6 µM (active)
- AC50 [14]: 5.13 µM (active)
- AC50 [15]: 620 nM (active)

SMILES: COc1cc(O)c(NC(C)=O)c2nonc12
- IC50 (SUMO-activating enzyme [16]): 7.24 µM (active)
- IC50 [17]: 14.6 µM (active)
- IC50 [18]: 8.37 µM (active)
- IC50 (SUMO-activating enzyme [19]): 74.2 µM (active)

SMILES: CS(=O)(=O)c1cccc(C(=O)Nc2ccc(-c3nc4ccccc4[nH]3)cc2)c1
- IC50 (cells [20]): > 67.5 µM (inactive)
- IC50 [21]: > 67.5 µM (inactive)

SMILES: C[C@H](CO)N1C[C@H](C)[C@H](CN(C)Cc2ccc(C(F)(F)F)cc2)Oc2c(NC(=O)c3ccncc3)cccc2C1=O
- AC50 [22]: 39 µM (inactive)

SMILES: CCCCOc1ccc(C(=O)NO)cc1
- IC50 [23]: 11.3 µM (inactive)

SMILES: C[C@H](CO)N1C[C@H](C)[C@@H](CN(C)C(=O)Nc2cccc3ccccc23)OCCCC[C@H](C)Oc2ccc(NC(=O)c3ccncc3)cc2C1=O
- AC50 (Paired box protein Pax-8): 3.61 µM (active)
- AC50 [24]: 49.1 µM (active)

SMILES: CNC(=O)C[C@H]1CC[C@H]2[C@@H](COc3ccc(NC(=O)Nc4cccc(C#N)c4)cc3C(=O)N2C)O1
- AC50 (HeLa): 27.2 µM (active)

SMILES: O=c1/c(=C\c2ccc(O)cc2)sc2n1C(c1ccccc1)C(c1ccccc1)=NN=2 (stereo unspecified)
- IC50 [25]: 32.1 µM (active)
- IC50 [26]: 13.7 µM (active)
- CC50 [27]: 33 µM (active)
- AC50 (Cytochrome P450 1A2): 4.47 µM (inconclusive)

SMILES: Nc1nc(O)c2[nH]nnc2n1 [8-AZAGUANINE]
- IC50 [28]: > 80 µM (inactive)
- EC50 (cells [29]): 153 nM (active)
- EC50 [30]: > 91.2 µM (inactive)
- EC50 [31]: 10.3 µM (active)
- EC50 [32]: < 100 nM (active)

SMILES: Nc1nc2nn[nH]c2c(=O)[nH]1 [8-AZAGUANINE]
- EC50 [33]: > 91.2 µM (inactive)
- AC50 [34]: 875 nM (active)

SMILES: O=C(O)CN1CCN(CC(=O)O)CCN(CC(=O)O)CCN(CC(=O)O)CC1 [TETRAXETAN]
- EC50 [35]: > 20 µM (inactive)
